Patent US20220363667A1 (Nippon Chemiphar Co., Ltd., priority 2018, published 2022)
Where a name gives a salt, the structure may show the parent alone.

Tested on: SD rats
Experiment: Rat formalin test
Type: in vivo
Conditions: po, 30 mg/kg orally once, pain behavior time from 15 to 30 minutes after formalin administration vs vehicle group, read-out: Inhibition ratio (pain behavior inhibition ratio)
Method: 30 mg/kg of a vehicle or a test substance was orally administrated to SD rats once, and according to the method described in McNamara C. R., Mandel-Brehm J., Bautista D. M., Siemens J., Deranian K. L., Zhao M., Hayward N. J., Chong J. A., Julius D., Moran M. M., Fanger C. M.: TRPA1 mediates formalin-induced pain. Proc. Natl. Acad. Sci. U.S.A. 104, 2007, 13525-13530, 50 μL of a 2.0% formalin solution as a pain-inducing substance was subcutaneously administered under the skin of the plantar plate of the right hind limb of each rat.
Regarding the evaluation, the pain behavior inhibition ratio was determined from the pain behavior time of each test substance-administered group with respect to the pain behavior time of the vehicle-administered group for 15 minutes measured from 15 minutes to 30 minutes after the administration.

Q: How did the inhibition in vivo at 30 mg/kg turn out when `O=C(N[C@@H]1CCN(c2cncc(C(F)(F)F)c2)C1)C1CC1c1cc(Cl)cc(Cl)c1` (single isomer, unassigned) [Example 99A] was run?
A: < 10%

Q: Which inhibition in vivo at 30 mg/kg does the source give for `O=C(N[C@@H]1CCN(c2cncc(C(F)(F)F)c2)C1)C1CC1c1ccc(Br)cc1` (single isomer, unassigned) [Example 100A] here?
A: ≥ 20%

Q: Which inhibition in vivo at 30 mg/kg does the source give for `O=C(Cc1ccc(C2CC2)cc1)N[C@@H]1CCN(c2cncc(C(F)(F)F)c2)C1` [Example 1, (R)-2-(4-cyclopropylphenyl)-N-(1-(5-(trifluoromethyl)pyridin-3-yl)pyrrolidin-3-yl)acetamide] here?
A: ≥ 20%

Q: Which inhibition in vivo at 30 mg/kg does the source give for `CC(C)c1ccc(CC(=O)N[C@@H]2CCN(c3cncc(C(F)(F)F)c3)C2)cc1` [Example 4, (R)-2-(4-isopropylphenyl)-N-(1-(5-(trifluoromethyl)pyridin-3-yl)pyrrolidin-3-yl)acetamide] here?
A: ≥ 20%

Q: How did the inhibition in vivo at 30 mg/kg turn out when `O=C(Cc1ccc(C2CC2)cc1)N[C@H]1CN(c2cncc(C(F)(F)F)c2)C[C@@H]1O` [Example 5, 2-(4-Cyclopropylphenyl)-N-((3S,4S)-4-hydroxy-1-(5-(trifluoromethyl)pyridin-3-yl)pyrrolidin-3-yl)acetamide] was run?
A: ≥ 20%

Q: Which inhibition in vivo at 30 mg/kg does the source give for `O=C(Cc1ccc(C2CC2)cc1)N[C@H]1CN(c2nc(C(F)(F)F)cs2)CC12CC2` [Example 8, (R)-2-(4-cyclopropylphenyl)-N-(5-(4-(trifluoromethyl)thiazol-2-yl)-5-azaspiro[2.4]heptan-7-yl)acetamide] here?
A: < 10%

Q: With `O=C(Cc1ccc(C(F)(F)F)cc1)N[C@@H]1CCN(c2cncc(C(F)(F)F)n2)C1` [Example 11, (R)-2-(4-(trifluoromethyl)phenyl)-N-(1-(6-(trifluoromethyl)pyrazin-2-yl)pyrrolidin-3-yl)acetamide] as the compound, how does the inhibition in vivo at 30 mg/kg read?
A: ≥ 20%

Q: How did the inhibition in vivo at 30 mg/kg turn out when `N#Cc1ncc(N2CC[C@@H](NC(=O)Cc3ccc(C4CC4)cc3)C2)cc1C(F)(F)F` [Example 12, (R)—N-(1-(6-cyano-5-(trifluoromethyl)pyridin-3-yl)pyrrolidin-3-yl)-2-(4-cyclopropylphenyl)acetamide] was run?
A: 10 to 20%

Q: For `O=C(Cc1ccc(N2CCS(=O)(=O)CC2)cc1)N[C@@H]1CCN(c2cncc(C(F)(F)F)c2)C1` [Example 23, (R)-2-(4-(1,1-dioxidethiomorpholino)phenyl)-N-(1-(5-(trifluoromethyl)pyridin-3-yl)pyrrolidin-3-yl)acetamide], which inhibition in vivo at 30 mg/kg is on record?
A: < 10%

Q: For `N#CC1(NC(=O)Cc2ccc(C3CC3)cc2)CCN(c2cncc(C(F)(F)F)c2)C1` (stereo not drawn) [Example 36, N-(3-cyano-1-(5-(trifluoromethyl)pyridin-3-yl)pyrrolidin-3-yl)-2-(4-cyclopropylphenyl)acetamide], which inhibition in vivo at 30 mg/kg is on record?
A: < 10%

Q: Which inhibition in vivo at 30 mg/kg does the source give for `COC(=O)C1(NC(=O)Cc2ccc3cc[nH]c3c2)CCN(c2cncc(C(F)(F)F)c2)C1` (stereo not drawn) [Example 37, Methyl 3-(2-(1H-indol-6-yl)acetamido)-1-(5-(trifluoromethyl)pyridin-3-yl)pyrrolidine-3-carboxylate] here?
A: < 10%

Q: For `O=C(N[C@@H]1CCN(c2cncc(C(F)(F)F)c2)C1)[C@H]1C[C@@H]1c1nc2ccccc2o1` [Example 39, (1S,2S)-2-(benzo[d]oxazol-2-yl)-N—((R)-1-(5-(trifluoromethyl)pyridin-3-yl)pyrrolidin-3-yl)cyclopropane-1-carboxyamide], which inhibition in vivo at 30 mg/kg is on record?
A: ≥ 20%

Q: Which inhibition in vivo at 30 mg/kg does the source give for `O=C(N[C@@H]1CCN(c2cncc(C(F)(F)F)c2)C1)[C@H]1C[C@@H]1c1nc2cc(F)ccc2o1` [Example 49, (1S,2S)-2-(5-fluorobenzo[d]oxazol-2-yl)-N—((R)-1-(5-(trifluoromethyl)pyridin-3-yl)pyrrolidin-3-yl)cyclopropane-1-carboxyamide] here?
A: ≥ 20%

Q: How did the inhibition in vivo at 30 mg/kg turn out when `O=C(N[C@@H]1CCN(c2ccc(C(F)(F)F)nc2)C1)[C@H]1C[C@@H]1c1nc2ccccc2[nH]1` [Example 54, (1S,2S)-2-(1H-benzo[d]imidazol-2-yl)-N—((R)-1-(6-(trifluoromethyl)pyridin-3-yl)pyrrolidin-3-yl)cyclopropane-1-carboxyamide] was run?
A: < 10%

Q: With `O=C(N[C@@H]1CCN(c2cnc(C(F)(F)F)nc2)C1)[C@H]1C[C@@H]1c1nc2ccccc2[nH]1` [Example 70, (1S,2S)-2-(1H-benzo[d]imidazol-2-yl)-N—((R)-1-(2-(trifluoromethyl)pyrimidin-5-yl)pyrrolidin-3-yl)cyclopropane-1-carboxyamide] as the compound, how does the inhibition in vivo at 30 mg/kg read?
A: < 10%

Q: Which inhibition in vivo at 30 mg/kg does the source give for `O=C(N[C@@H]1CCN(c2cncc(C(F)(F)F)c2)C1)[C@H]1C[C@@H]1c1nc2ccccc2[nH]1` [Example 71, (1S,2S)-2-(1H-benzo[d]imidazol-2-yl)-N—((R)-1-(5-(trifluoromethyl)pyridin-3-yl)pyrrolidin-3-yl)cyclopropane-1-carboxyamide] here?
A: < 10%

Q: How did the inhibition in vivo at 30 mg/kg turn out when `O=C(Cc1ccc2ncccc2c1)N[C@@H]1CCN(c2cncc(C(F)(F)F)c2)C1` [Example 77, (R)-2-(quinolin-6-yl)-N-(1-(5-(trifluoromethyl)pyridin-3-yl)pyrrolidin-3-yl)acetamide] was run?
A: < 10%

Q: For `O=C(Cc1ccc2cccnc2c1)N[C@@H]1CCN(c2cncc(C(F)(F)F)c2)C1` [Example 79, (R)-2-(quinolin-7-yl)-N-(1-(5-(trifluoromethyl)pyridin-3-yl)pyrrolidin-3-yl)acetamide hydrochloride], which inhibition in vivo at 30 mg/kg is on record?
A: < 10%

Q: Which inhibition in vivo at 30 mg/kg does the source give for `O=C(Cc1ccc(N2CCC(F)(F)C2)cc1)N[C@@H]1CCN(c2ccc(C(F)(F)F)nc2)C1` [Example 84, (R)-2-(4-(3,3-difluoropyrrolidin-1-yl)phenyl)-N-(1-(6-(trifluoromethyl)pyridin-3-yl)pyrrolidin-3-yl)acetamide] here?
A: < 10%

Q: Which inhibition in vivo at 30 mg/kg does the source give for `O=C(Cc1ccc2cc[nH]c2c1)N[C@@H]1CCN(c2ccc(C(F)(F)F)nc2)C1` [Example 85, (R)-2-(1H-indol-6-yl)-N-(1-(6-(trifluoromethyl)pyridin-3-yl)pyrrolidin-3-yl)acetamide] here?
A: < 10%

Q: Which inhibition in vivo at 30 mg/kg does the source give for `CC(C)c1ccc(CC(=O)NC2CCN(c3cncc(C(F)(F)F)c3)CC2)cc1` [Example 109, 2-(4-Isopropylphenyl)-N-(1-(5-(trifluoromethyl)pyridin-3-yl)piperidin-4-yl)acetamide] here?
A: ≥ 20%

Q: With `COc1ncc(N2CC[C@@H](NC(=O)Cc3ccc(C(C)C)cc3)C2)cc1C(F)(F)F` [Example 110, (R)-2-(4-isopropylphenyl)-N-(1-(6-methoxy-5-(trifluoromethyl)pyridin-3-yl)pyrrolidin-3-yl)acetamide] as the compound, how does the inhibition in vivo at 30 mg/kg read?
A: ≥ 20%

Q: Which inhibition in vivo at 30 mg/kg does the source give for `CC(C)c1ccc(CC(=O)N[C@@H]2CCN(c3nc(C(F)(F)F)cs3)C2)cc1` [Example 112, (R)-2-(4-isopropylphenyl)-N-(1-(4-(trifluoromethyl)thiazol-2-yl)pyrrolidin-3-yl)acetamide] here?
A: ≥ 20%

Q: With `CC(C)c1ccc(CC(=O)N[C@@H]2CCN(c3ccc(C(F)(F)F)nc3)C2)cc1` [Example 113, (R)-2-(4-isopropylphenyl)-N-(1-(6-(trifluoromethyl)pyridin-3-yl)pyrrolidin-3-yl)acetamide] as the compound, how does the inhibition in vivo at 30 mg/kg read?
A: 10 to 20%

Q: With `CC(C)c1ccc(CC(=O)NC2CN(c3cncc(C(F)(F)F)c3)C2)cc1` [Example 117, 2-(4-Isopropylphenyl)-N-(1-(5-(trifluoromethyl)pyridin-3-yl)azetidin-3-yl)acetamide] as the compound, how does the inhibition in vivo at 30 mg/kg read?
A: ≥ 20%

Q: `O=C(Cc1ccc(C2CC2)cc1)N[C@@H]1CCN(c2ccc(C(F)(F)F)nc2)C1` [Example 121, (R)-2-(4-cyclopropylphenyl)-N-(1-(6-(trifluoromethyl)pyridin-3-yl)pyrrolidin-3-yl)acetamide] was tested. Which inhibition in vivo at 30 mg/kg did it give?
A: < 10%

Q: With `O=C(Cc1ccc(C(F)(F)F)cc1)N[C@@H]1CCN(c2cncc(C(F)(F)F)c2)C1` [Example 123, (R)-2-(4-(trifluoromethyl)phenyl)-N-(1-(5-(trifluoromethyl)pyridin-3-yl)pyrrolidin-3-yl)acetamide] as the compound, how does the inhibition in vivo at 30 mg/kg read?
A: ≥ 20%

Q: `O=C(Cc1ccc2cc[nH]c2c1)N[C@@H]1CCN(c2cncc(C(F)(F)F)c2)C1` [Example 124, (R)-2-(1H-indol-6-yl)-N-(1-(5-(trifluoromethyl)pyridin-3-yl)pyrrolidin-3-yl)acetamide] was tested. Which inhibition in vivo at 30 mg/kg did it give?
A: ≥ 20%

Q: How did the inhibition in vivo at 30 mg/kg turn out when `CC(C)(O)c1ccc(CC(=O)N[C@@H]2CCN(c3cncc(C(F)(F)F)c3)C2)cc1` [Example 131, (R)-2-(4-(2-hydroxypropan-2-yl)phenyl)-N-(1-(5-(trifluoromethyl)pyridin-3-yl)pyrrolidin-3-yl)acetamide] was run?
A: < 10%

Q: Which inhibition in vivo at 30 mg/kg does the source give for `CC(C)(C(=O)N[C@@H]1CCN(c2cncc(C(F)(F)F)c2)C1)c1ccc(C2CC2)cc1` [Example 135, (R)-2-(4-cyclopropylphenyl)-2-methyl-N-(1-(5-(trifluoromethyl)pyridin-3-yl)pyrrolidin-3-yl)propanamide] here?
A: < 10%

Q: How did the inhibition in vivo at 30 mg/kg turn out when `NC(C(=O)N[C@@H]1CCN(c2cncc(C(F)(F)F)c2)C1)c1ccc(C2CC2)cc1` (stereo partly drawn) [Example 137, 2-amino-2-(4-cyclopropylphenyl)-N—((R)-1-(5-(trifluoromethyl)pyridin-3-yl)pyrrolidin-3-yl)acetamide] was run?
A: ≥ 20%

Q: With `O=C(Cc1ccc(C(F)(F)F)cc1F)N[C@@H]1CCN(c2cncc(C(F)(F)F)c2)C1` [Example 141, (R)-2-(2-fluoro-4-(trifluoromethyl)phenyl)-N-(1-(5-(trifluoromethyl)pyridin-3-yl)pyrrolidin-3-yl)acetamide] as the compound, how does the inhibition in vivo at 30 mg/kg read?
A: < 10%

Q: For `O=C(Cc1ccc(N2CCOCC2)cc1)N[C@@H]1CCN(c2cncc(C(F)(F)F)c2)C1` [Example 181, (R)-2-(4-morpholinophenyl)-N-(1-(5-(trifluoromethyl)pyridin-3-yl)pyrrolidin-3-yl)acetamide], which inhibition in vivo at 30 mg/kg is on record?
A: ≥ 20%
